Structures are written as SMILES.

One assay deals with T1, acetylcholine muscarinic M1 receptor (Homo sapiens, UniProt P11229).
T1 construct: expressed in transfected cells; host or cells: CHOnfat cells (CHO cells with an NFAT reporter) expressing hM1, kept under Geneticin selection
T1 sequence (P11229 1-460): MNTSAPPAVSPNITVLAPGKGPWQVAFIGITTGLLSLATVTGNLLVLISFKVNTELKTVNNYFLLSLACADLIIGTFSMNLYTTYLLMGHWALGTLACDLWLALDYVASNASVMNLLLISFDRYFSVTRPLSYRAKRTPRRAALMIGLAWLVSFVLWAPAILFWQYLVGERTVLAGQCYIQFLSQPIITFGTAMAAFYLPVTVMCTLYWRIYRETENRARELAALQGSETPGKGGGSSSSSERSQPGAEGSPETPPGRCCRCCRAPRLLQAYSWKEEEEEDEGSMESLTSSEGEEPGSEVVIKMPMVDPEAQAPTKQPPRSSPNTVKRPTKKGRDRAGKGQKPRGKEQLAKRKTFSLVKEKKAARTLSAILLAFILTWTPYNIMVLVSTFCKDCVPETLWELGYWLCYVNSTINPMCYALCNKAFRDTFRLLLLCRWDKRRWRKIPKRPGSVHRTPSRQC
Description: muscarinic FLIPR assay: intracellular calcium in CHOnfat/hM1 cells, potentiation of EC20 acetylcholine. The class given is cell-based. The following applies: M1 Pot., Table 2; CHOnfat/hM1 cells, FLIPR, EC20 acetylcholine (3 nM final). The procedure, abridged: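 CHOnfat cells stably expressing human M1, Fluo-4AM-loaded, in HBSS with 20 mM HEPES, 2.5 mM probenecid, 1% BSA. Compounds preincubated 4 min (printed "4 mM") before an EC20 acetylcholine challenge (3 nM final). FLIPR intracellular Ca²⁺ signal compared with 3 nM acetylcholine alone to detect potentiation.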
(Calcium assays in cells follow changes in intracellular calcium, usually with a dye or a luminescent sensor.)
As to `CN(C)C(=O)Oc1cccc(N2Cc3c(cc(CN4CCC(F)(C#N)CC4)c4cccnc34)C2=O)c1` [Example 129, 3-{5-[(4-cyano-4-fluoropiperidin-1-yl)methyl]-7-oxo-7,9-dihydro-8H-pyrrolo[3,4-h]quinolin-8-yl}phenyl dimethyl carbamate], the EC50 turned out to be 2170 nM.

Staying with this assay, now noted: Table 1; CHOnfat/hM1 cells, FLIPR, EC20 acetylcholine (3 nM final); read-out: M1 Pot.
In the case of `C=Cc1cccc(C2(C#N)CCN(Cc3cc4c(c5ccccc35)CN([C@H]3CCCC[C@@H]3O)C4=O)CC2)n1` [Example 49, 4-(6-ethenylpyridin-2-yl)-1-({2-[(1S,2S)-2-hydroxycyclohexyl]-3-oxo-2,3-dihydro-1H-benzo[e]isoindol-5-yl}methyl)piperidine-4-carbonitrile], the EC50 came out at 114 nM.

Take `N#CC1CCN(Cc2cc3c(c4ccccc24)CN([C@H]2CCCC[C@@H]2O)C3=O)CC1` [Example 20, 1-({2-[(1S,2S)-2-hydroxycyclohexyl]-3-oxo-2,3-dihydro-1H-benzo[e]isoindol-5-yl}methyl)piperidine-4-carbonitriIe]: the EC50 came out at 93 nM.

Still in this assay, the particulars now being: Table 2; CHOnfat/hM1 cells, FLIPR, EC20 acetylcholine (3 nM final); read-out: M1 Pot.
As to `N#CC1(Cc2ccncc2)CCN(Cc2cc3c(c4ncccc24)CN(C2CCCCC2O)C3=O)CC1` (stereo not drawn) [Example 135, 1-{[8-(2-hydroxycyclohexyl)-7-oxo-8,9-dihydro-7H-pyrrolo[3,4-h]quinolin-5-yl]methyl}-4-(pyridin-4-ylmethyl)piperidine-4-carbonitrile], the EC50 turned out to be 156 nM.

Take `O=C1c2cc(CN3CCC(F)(C#CC4CC4)CC3)c3cccnc3c2CN1[C@H]1CCCC[C@@H]1O` [Example 132, 5-{[4-(cyclopropylethynyl)-4-fluoropiperidin-1-yl]methyl}-8-[(1S,2S)-2-hydroxycyclohexyl]-8,9-dihydro-7H-pyrrolo[3,4-h]quinolin-7-one]: the EC50 is 246 nM.

As for `O=C1c2cc(CN3CCC(C4CC4)CC3)c3cccnc3c2CN1C1CCCCC1O` (stereo not drawn) [Example 90, 5-[(4-cyclopropylpiperidin-1-yl)methyl]-8-(2-hydroxycyclohexyl)-8,9-dihydro-7H-pyrrolo[3,4-h]quinolin-7-one], the EC50 turned out to be 1200 nM.

In the case of `O=C1c2cc(CN3CCC(F)(c4ccccn4)CC3)c3cccnc3c2CN1C1CCCCC1O` (stereo not drawn) [Example 146, 5-[(4-fluoro-4-pyridin-2-ylpiperidin-1-yl)methyl]-8-(2-hydroxycyclohexyl)-8,9-dihydro-7H-pyrrolo[3,4-h]quinolin-7-one], the EC50 came to 11 nM.

Turning to `CC1c2c(cc(CN3CCC(F)(C#N)CC3)c3cccnc23)C(=O)N1C1CCCCC1O` (single isomer, unassigned) [Example 118, 4-fluoro-1-{[8-(2-hydroxycyclohexyl)-9-methyl-7-oxo-8,9-dihydro-7H-pyrrolo[3,4-h]quinolin-5-yl]methyl}piperidine-4-carbonitrile], the EC50 was determined as 450 nM.

Consider `CC1c2c(cc(CN3CCN(c4ccccc4)CC3)c3cccnc23)C(=O)N1C1CCCCC1O` (stereo not drawn) [Example 176, 8-(2-hydroxycyclohexyl)-9-methyl-5-[(4-phenylpiperazin-1-yl)methyl]-8,9-dihydro-7H-pyrrolo[3,4-h]quinolin-7-one], for which the EC50 is 93 nM.

With `O=C1c2cc(CN3CCN(c4ccccc4)CC3)c3cccnc3c2CN1C1CCCCC1O` (stereo not drawn) [Example 174, 8-(2-hydroxycyclohexyl)-5-[(4-phenylpiperazin-1-yl)methyl]-8,9-dihydro-7H-pyrrolo[3,4-h]quinolin-7-one], the EC50 stood at 18 nM.

Take `N#CC1(c2ccccn2)CCN(Cc2cc3c(c4ncccc24)CN([C@H]2CCCC[C@@H]2O)C3=O)CC1` [Example 145, 1-({8-[(1S,2S)-2-hydroxycyclohexyl]-7-oxo-8,9-dihydro-7H-pyrrolo[3,4-h]quinolin-5-yl}methyl)-4-pyridin-2-ylpiperidine-4-carbonitrile]: the EC50 came to 7.6 nM.

As to `CC1c2c(cc(CN3CCC(F)(F)CC3)c3cccnc23)C(=O)N1[C@@H]1CCOC[C@@H]1O` (stereo partly drawn) [Example 107, 1,5-anhydro-3,4-dideoxy-3-{5-[(4,4-difluoropiperidin-1-yl)methyl]-9-methyl-7-oxo-7,9-dihydro-8H-pyrrolo[3,4-h]quinolin-8-yl}-D-erythro-pentitol], the EC50 stood at 12 nM.

(Values after patent US9206200B2, “N-linked lactam M1 receptor positive allosteric mogulators” (Merck Sharp & Dohme Corp., priority 2011, dated 2015).)
